Experimental data taken from US12570642B2, “GLP-IR modulating compounds” (Gilead Sciences, Inc., priority 2021, dated 2026).

molecular target: GLP-1R (Homo sapiens, UniProt P43220); test: GLP-1R Activation - cAMP Assay; type: cell-based; conditions: cAMP increase in CHO cells stably expressing GLP-1R; each compound run on one of the two cAMP assays (Assay 1 or Assay 2, not specified)
Procedure, shortened: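 cAMP rise read by HTRF after 30 min agonist exposure (10-point titration, 37 °C) in HBSS/20 mM Hepes/0.1% BSA, following 1 h pre-incubation. Cells: stable GLP-1R CHO line, 1,000/well, seeded overnight. Sigmoidal fit of response vs log concentration gives EC50.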

GLP-1R, sequence (P43220 24-463): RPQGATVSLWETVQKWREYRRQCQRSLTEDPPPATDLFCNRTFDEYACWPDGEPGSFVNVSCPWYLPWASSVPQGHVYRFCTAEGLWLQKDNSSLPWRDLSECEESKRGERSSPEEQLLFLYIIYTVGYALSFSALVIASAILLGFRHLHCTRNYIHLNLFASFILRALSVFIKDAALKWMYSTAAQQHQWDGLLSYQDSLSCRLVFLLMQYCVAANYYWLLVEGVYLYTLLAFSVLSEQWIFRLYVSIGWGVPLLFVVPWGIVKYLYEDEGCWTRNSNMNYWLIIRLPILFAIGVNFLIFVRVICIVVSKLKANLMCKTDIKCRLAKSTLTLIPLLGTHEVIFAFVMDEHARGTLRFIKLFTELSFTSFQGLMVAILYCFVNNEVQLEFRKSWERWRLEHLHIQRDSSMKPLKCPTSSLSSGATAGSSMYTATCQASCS

SMILES	EC50
CC1(C)COC[C@H]1n1c(Cc2cc(F)c(-c3cccc(OCc4ccc(C(F)(F)F)cc4F)n3)cc2F)nc2c(F)cc(C(=O)O)cc21 [Example 169, (S)-2-(2,5-difluoro-4-(6-((2-fluoro-4-(trifluoromethyl)benzyl)oxy)pyridin-2-yl)benzyl)-1-(4,4-dimethyltetrahydrofuran-3-yl)-4-fluoro-1H-benzo[d]imidazole-6-carboxylic Acid]	0.171 nM
COc1nc(Cl)ccc1COc1cccc(-c2cc(F)c(Cc3nc4c(F)cc(C(=O)O)cc4n3C3COCC3(C)C)cc2F)n1 (stereo not drawn) [Example 170, 2-(4-(6-((6-chloro-2-methoxypyridin-3-yl)methoxy)pyridin-2-yl)-2,5-difluorobenzyl)-1-(4,4-dimethyltetrahydrofuran-3-yl)-4-fluoro-1H-benzo[d]imidazole-6-carboxylic Acid]	0.227 nM
Cc1cc(Cc2nc3ccc(C(=O)O)cc3n2[C@@H]2COCC2(C)C)c(F)cc1-c1ccnc(OCc2ccc(C#N)cc2)n1 [Example 178, (S)-2-(4-(2-((4-cyanobenzyl)oxy)pyrimidin-4-yl)-2-fluoro-5-methylbenzyl)-1-(4,4-dimethyltetrahydrofuran-3-yl)-1H-benzo[d]imidazole-6-carboxylic Acid]	0.499 nM
CC1(C)COC[C@H]1n1c(Cc2cc(F)c(-c3ccnc(OCc4ccc(-n5ccnn5)cc4)n3)cc2F)nc2ccc(C(=O)O)cc21 [Example 182, (S)-2-(4-(2-((4-(1H-1,2,3-triazol-1-yl)benzyl)oxy)pyrimidin-4-yl)-2,5-difluorobenzyl)-1-(4,4-dimethyltetrahydrofuran-3-yl)-1H-benzo[d]imidazole-6-carboxylic Acid]	0.178 nM
CC1(C)COC[C@H]1n1c(Cc2cc(F)c(-c3cccc(OCc4ccc(-n5ccnn5)cc4)n3)cc2F)nc2ccc(C(=O)O)cc21 [Example 183, (S)-2-(4-(6-((4-(1H-1,2,3-triazol-1-yl)benzyl)oxy)pyridin-2-yl)-2,5-difluorobenzyl)-1-(4,4-dimethyltetrahydrofuran-3-yl)-1H-benzo[d]imidazole-6-carboxylic Acid]	0.129 nM
N#Cc1ccc(COc2cccc(-c3cc(F)c(Cc4nc5ccc(C(=O)O)cc5n4[C@@H]4COC[C@@H]4COC(F)F)cc3F)n2)c(F)c1 [Example 185, 2-(4-(6-((4-cyano-2-fluorobenzyl)oxy)pyridin-2-yl)-2,5-difluorobenzyl)-1-((3S,4R)-4-((difluoromethoxy)methyl)tetrahydrofuran-3-yl)-1H-benzo[d]imidazole-6-carboxylic Acid]	0.594 nM
N#Cc1ccc(COc2cccc(-c3cc(F)c(Cc4nc5ccc(C(=O)O)cc5n4[C@@H]4C[C@@H]5CC[C@H]4O5)cc3F)n2)c(F)c1 [Example 187, 1-((1R,2R,4S)-7-oxabicyclo[2.2.1]heptan-2-yl)-2-(4-(6-((4-cyano-2-fluorobenzyl)oxy)pyridin-2-yl)-2,5-difluorobenzyl)-1H-benzo[d]imidazole-6-carboxylic acid]	0.391 nM
N#Cc1ccc(COc2cccc(-c3cc(F)c(Cc4nc5ccc(C(=O)O)cc5n4[C@H]4COC[C@@H]4C4CC4)cc3F)n2)c(F)c1 [Example 189, 2-(4-(6-((4-cyano-2-fluorobenzyl)oxy)pyridin-2-yl)-2,5-difluorobenzyl)-1-((3R,4R)-4-cyclopropyltetrahydrofuran-3-yl)-1H-benzo[d]imidazole-6-carboxylic acid]	0.149 nM
N#Cc1ccc(COc2cccc(-c3cc(F)c(Cc4nc5ccc(C(=O)O)cc5n4[C@@H]4COC[C@@H]4C4CC4)cc3F)n2)c(F)c1 [Example 191, 2-(4-(6-((4-cyano-2-fluorobenzyl)oxy)pyridin-2-yl)-2,5-difluorobenzyl)-1-((3S,4R)-4-cyclopropyltetrahydrofuran-3-yl)-1H-benzo[d]imidazole-6-carboxylic acid]	0.353 nM
N#Cc1ccc(COc2cccc(-c3cc(F)c(Cc4nc5ccc(C(=O)O)cc5n4[C@H]4COC[C@H]4C4CC4)cc3F)n2)c(F)c1 [Example 192, 2-(4-(6-((4-cyano-2-fluorobenzyl)oxy)pyridin-2-yl)-2,5-difluorobenzyl)-1-((3R,4S)-4-cyclopropyltetrahydrofuran-3-yl)-1H-benzo[d]imidazole-6-carboxylic acid]	0.444 nM
CC1(C)COC[C@H]1n1c(Cc2cc(F)c(-c3ccnc(OCc4ccc(C#N)cc4)n3)cc2F)nc2ccc(C(=O)O)cc21 [Example 193, (S)-2-(4-(2-((4-cyanobenzyl)oxy)pyrimidin-4-yl)-2,5-difluorobenzyl)-1-(4,4-dimethyltetrahydrofuran-3-yl)-1H-benzo[d]imidazole-6-carboxylic acid]	0.132 nM
CC1(C)COC[C@H]1n1c(Cc2cc(F)c(-c3ccnc(OCc4ccc(C#N)cc4)n3)cc2F)nc2c(F)cc(C(=O)O)cc21 [Example 194, (S)-2-(4-(2-((4-cyanobenzyl)oxy)pyrimidin-4-yl)-2,5-difluorobenzyl)-1-(4,4-dimethyltetrahydrofuran-3-yl)-4-fluoro-1H-benzo[d]imidazole-6-carboxylic acid]	0.265 nM

Other lines, results leading:

EC50	SMILES
0.05 nM	CC1(C)COC[C@H]1n1c(Cc2cc(F)c(-c3cccc(OCc4cnc(-n5ccnn5)cc4Cl)n3)cc2F)nc2c(F)cc(C(=O)O)cc21 [Example 171, (S)-2-(4-(6-((4-chloro-6-(1H-1,2,3-triazol-1-yl)pyridin-3-yl)methoxy)pyridin-2-yl)-2,5-difluorobenzyl)-1-(4,4-dimethyltetrahydrofuran-3-yl)-4-fluoro-1H-benzo[d]imidazole-6-carboxylic Acid]
0.129 nM	N#Cc1ccc(COc2cccc(-c3cc(F)c(Cc4nc5ccc(C(=O)O)cc5n4[C@H]4COC[C@H]4CF)cc3F)n2)c(F)c1 [Example 172]
0.018 nM	CC1(C)COCC1n1c(Cc2cc(F)c(-c3cccc(OCc4cnc(-n5ccnn5)cc4Cl)n3)cc2F)nc2c(F)cc(C(=O)O)cc21 (stereo not drawn) [Example 173, 2-(4-(6-((4-chloro-6-(1H-1,2,3-triazol-1-yl)pyridin-3-yl)methoxy)pyridin-2-yl)-2,5-difluorobenzyl)-1-(4,4-dimethyltetrahydrofuran-3-yl)-4-fluoro-1H-benzo[d]imidazole-6-carboxylic Acid]
0.051 nM	CC1(C)COCC1n1c(Cc2cc(F)c(-c3cccc(OCc4cnc(-n5ccnc5)cc4Cl)n3)cc2F)nc2c(F)cc(C(=O)O)cc21 (stereo not drawn) [Example 174, 2-(4-(6-((4-chloro-6-(1H-imidazol-1-yl)pyridin-3-yl)methoxy)pyridin-2-yl)-2,5-difluorobenzyl)-1-(4,4-dimethyltetrahydrofuran-3-yl)-4-fluoro-1H-benzo[d]imidazole-6-carboxylic Acid]
0.106 nM	CC1(C)COCC1n1c(Cc2cc(F)c(-c3cccc(OCc4ccc(C(F)(F)F)cc4F)n3)cc2F)nc2c(F)cc(C(=O)O)cc21 (stereo not drawn) [Example 175, 2-(2,5-difluoro-4-(6-((2-fluoro-4-(trifluoromethyl)benzyl)oxy)pyridin-2-yl)benzyl)-1-(4,4-dimethyltetrahydrofuran-3-yl)-4-fluoro-1H-benzo[d]imidazole-6-carboxylic Acid]
0.021 nM	CC1(C)COC[C@H]1n1c(Cc2cc(F)c(-c3ccc(F)c(OCc4ccc(-n5ccnn5)cc4)n3)cc2F)nc2c(F)cc(C(=O)O)cc21 [Example 177, (S)-2-(4-(6-((4-(1H-1,2,3-triazol-1-yl)benzyl)oxy)-5-fluoropyridin-2-yl)-2,5-difluorobenzyl)-1-(4,4-dimethyltetrahydrofuran-3-yl)-4-fluoro-1H-benzo[d]imidazole-6-carboxylic Acid]
0.064 nM	Cc1cc(Cc2nc3ccc(C(=O)O)cc3n2[C@@H]2COCC2(C)C)c(F)cc1-c1cccc(OCc2ccc(C#N)cc2)n1 [Example 179, (S)-2-(4-(6-((4-cyanobenzyl)oxy)pyridin-2-yl)-2-fluoro-5-methylbenzyl)-1-(4,4-dimethyltetrahydrofuran-3-yl)-1H-benzo[d]imidazole-6-carboxylic Acid]
0.089 nM	Cc1cc(Cc2nc3ccc(C(=O)O)cc3n2[C@@H]2COCC2(C)C)c(F)cc1-c1ccc(F)c(OCc2ccc(C#N)cc2)n1 [Example 180, (S)-2-(4-(6-((4-cyanobenzyl)oxy)-5-fluoropyridin-2-yl)-2-fluoro-5-methylbenzyl)-1-(4,4-dimethyltetrahydrofuran-3-yl)-1H-benzo[d]imidazole-6-carboxylic Acid]
0.025 nM	CC1(C)COC[C@H]1n1c(Cc2cc(F)c(-c3ccc(F)c(OCc4ccc(-n5ccnn5)cc4)n3)cc2F)nc2ccc(C(=O)O)cc21 [Example 181, (S)-2-(4-(6-((4-(1H-1,2,3-triazol-1-yl)benzyl)oxy)-5-fluoropyridin-2-yl)-2,5-difluorobenzyl)-1-(4,4-dimethyltetrahydrofuran-3-yl)-1H-benzo[d]imidazole-6-carboxylic Acid]
0.018 nM	CC1(C)COC[C@H]1n1c(Cc2cc(F)c(-c3cccc(OCc4ccc(-n5ccnn5)cc4)n3)cc2F)nc2c(F)cc(C(=O)O)cc21 [Example 186, (S)-2-(4-(6-((4-(1H-1,2,3-triazol-1-yl)benzyl)oxy)pyridin-2-yl)-2,5-difluorobenzyl)-1-(4,4-dimethyltetrahydrofuran-3-yl)-4-fluoro-1H-benzo[d]imidazole-6-carboxylic acid]
0.032 nM	CC1(C)COC[C@H]1n1c(Cc2cc(F)c(-c3ccc(F)c(OCc4ccc(C#N)cc4)n3)cc2F)nc2ccc(C(=O)O)cc21 [Example 188, (S)-2-(4-(6-((4-cyanobenzyl)oxy)-5-fluoropyridin-2-yl)-2,5-difluorobenzyl)-1-(4,4-dimethyltetrahydrofuran-3-yl)-1H-benzo[d]imidazole-6-carboxylic acid]
0.061 nM	N#Cc1ccc(COc2cccc(-c3cc(F)c(Cc4nc5ccc(C(=O)O)cc5n4[C@@H]4COC[C@H]4C4CC4)cc3F)n2)c(F)c1 [Example 190, 2-(4-(6-((4-cyano-2-fluorobenzyl)oxy)pyridin-2-yl)-2,5-difluorobenzyl)-1-((3S,4S)-4-cyclopropyltetrahydrofuran-3-yl)-1H-benzo[d]imidazole-6-carboxylic acid]
